Results published in patent US8318950B2, “N-acyl amino acid derivatives, a method for the preparation thereof, a pharmaceutical composition and use thereof as anti-allergic, anti-inflammatory and hypolipidemic agents” (Otkrytoe Aktsionernoe Obschestvo-Otechestvennye Lekarstva, priority 2005, dated 2012).

Tested on: guinea pig blood basophils
Test: In vitro ovalbumin (OA)-induced blood basophil degranulation of immunized guinea pig
Type: cell-based
Description: Leukocytes from guinea pig blood were isolated according to the Freemel's method [Immunologicheskiye Metody under edition of G. Frimel/Moscow., “Meditsina” publishers, 1987, p. 222 in the inventor's modification].
Guinea pigs of both sexes weighing from 600 to 800 g were used to conduct the test. The animals were once immunized with a mixture of 10 μg ovalbumin and 100 mg aluminum hydroxide per one animal according to Andersson [Anderson P. Antigen-induced bronchial anaphylaxis in actively sensitized guinea-pigs.//Allergy. 1980. Vol. 35. P. 63-71].
Under ester anesthesia, 15 ml blood were drawn from guinea pig heart. Double precipitation of cells using EDTA and a citrate-containing precipitating liquid was used to isolate basophils in the leukocyte suspension.
Blood was mixed with 5% EDTA.Na2 2H2O (“Sigma”) solution at 9:1 ratio and in 30 minutes it was subjected to mild centrifugation (for 12 minutes at 80 g). Supernatant was collected and centrifuged for 15 minutes at 500 g.
To the remaining cells, a citrate-containing precipitating liquid (3) was added at proportion 3:10 (it was thermostated at 37° C. for 30 minutes). A supernatant fraction enriched by leukocytes was centrifuged for 7 minutes at 100 g. To leukocyte precipitate, 0.85% NaCl solution was added and cellular concentration was brought to 30×10^3 μl.
Protocol of the in vitro basophil degranulation test [Spravochnil po klinicheskim laboratomym metodam issledovaniya (A reference book on clinical-laboratory examination methods)/Edited by E. A. Cost/Moscow, “Meditsina” publishers, 1975, p. 130].
For the test, a centrifuge tube (3 tubes per each sample) was filled with 300 μl cellular suspension, then salt solution of a tested compound (or a salt solution in the control of spontaneous and maximum degranulation) was added and pre-incubated at 37° C. for 15 minutes, then into each tube 300 μl 1% OA solution was added (in the control of spontaneous degranulation a salt solution in the same amount was added) and once more pre-incubated at 37° C. for 10 minutes. Functional leukocyte concentration was 10^4/μl. Samples (100 μl) were taken off from each tube into separate tubes to assess a complete basophil degranulation, and to the remained cells, a cooled salt solution was added (5 ml into each tube) to arrest degranulation reaction, then the tubes were centrifuged for 7 min at 100 g, and from precipitate, preparations for microscopy were prepared. The preparations were fixed and stained according to the method of Seder et al. [Seder R. A. et al. Mouse splenic and bone marrow cell populations that express high—affinity Fcε receptors and produce interleukin-4 are highly enriched in basophils.//Proc. Natl. Acad. USA, 1991, V. 88, P. 2835-2839].
In order to detect a specific basophil granulation, the dye 0.5% alcyanic blue (pH 1.0) was used, nuclei were additionally stained with safranin (0.1% solution in 1% acetic acid). The preparations were used to assess a total degranulation inhibition.
A total degranulation inhibition (DI) (%) was calculated according to the formula: […]
max—% of degranulated basophils at the maximum degranulation (OA)
spontaneous—% of degranulated basophils in spontaneous degranulation (control)
experimental—% of degranulated basophils following exposure to the tested compound.
Assessment of a Complete Basophil Degranulation
Samples selected following basophil degranulation test (100 μl each) were poured into tubes with the dye (0.5% alcyane blue, pH 1.0) at ratio 1:1. Staining was carried out at room temperature for not less than 50 min. Stained basophils were calculated using the Fooks-Rosenthal chamber. Inhibition of a complete basophil degranulation (ICD) was calculated according to the formula: ICD(%)=1−[(Mm(c)−Mm(exper.)]/Mm(c)−Mm(OA)]×100, wherein
M m (c)—mean (by three samples) basophil number in the spontaneous basophil degranulation test
M±m (OA)—mean (by three samples) basophil number in the maximum antigen-induced basophil degranulation test; […]

In the case of `O=C(O)CCCC(=O)N[C@@H](Cc1c[nH]cn1)C(=O)O` [Compound IV, N^α-glutaryl-L-histidine], the “Number of completely degranulated basophils” value (“Number” for short) (10^−3 M) is reported as 2.6 ± 2.6 %, the “Number” value (10^−4 M) is reported as 2.9 ± 1.6 % and the “Number” value (10^−5 M) is reported as 0%. For the same molecule, the “Number” value (10^−6 M) was 3.9 ± 0.6%, the “Number” value (10^−7 M) was 9.1 ± 0.8% and the inhibition at 1000 µM (Cavia porcellus, 10^−3 M, read-out: Complete degranulation inhibition (CDI)) was 99.2 ± 11.2%. The inhibition at 100 µM (Cavia porcellus, 10^−4 M, read-out: Complete degranulation inhibition (CDI)) was 99.5 ± 12%, the inhibition at 10 µM (Cavia porcellus, 10^−5 M, read-out: Complete degranulation inhibition (CDI)) was 114 ± 2.7% and the inhibition at 1 µM (Cavia porcellus, 10^−6 M, read-out: Complete degranulation inhibition (CDI)) was 90 ± 1.8%. For the same molecule, the inhibition at 0.1 µM (Cavia porcellus, 10^−7 M, read-out: Complete degranulation inhibition (CDI)) was 76.7 ± 1.5% and the “degranulation inhibition in the test of complete OA-induced degranulation” value (calcium free medium) was roughly 100%.
